Source: PubChem BioAssay AID330 (DTP/NCI, 2004)
Toxic doses and inconclusive results are not listed. The calls were made as follows: active = survival T/C of 150% or more; inactive = T/C below 125% in these data.

System: P388 leukemia ip, CD2F1 mice, survival T/C
Assay: NCI In Vivo Anticancer Drug Screen. Data for tumor model P388 Leukemia (intraperitoneal) in CD2F1 (CDF1) mice
Conditions: endpoint: median survival time, higher = longer survival
Summary of the method: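 Mice carrying the transplanted tumor received test compound or vehicle. Survival was recorded in each group, and the value is the treated-group measurement divided by that of the vehicle-treated control group.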

Measured: T/C

NC(N)=NS(=O)(=O)c1ccccc1[N+](=O)[O-]
inactive: dose: 7.5 mg/kg/injection, schedule: Q01DX009 (ip), vehicle: saline with Tween-80 106 % of control | dose: 15.0 mg/kg/injection, schedule: Q01DX009 (ip), vehicle: saline with Tween-80 113 % of control | dose: 30.0 mg/kg/injection, schedule: Q01DX009 (ip), vehicle: saline with Tween-80 120 % of control

CCNCC(O)c1cccc(C(F)(F)F)c1 (stereo not given)
inactive: dose: 50.0 mg/kg/injection, schedule: Q01DX009 (ip), vehicle: saline 102 % of control | dose: 100.0 mg/kg/injection, schedule: Q01DX009 (ip), vehicle: saline 109 % of control

CNC(=O)C1OCCOCCOC(C(=O)NC)C(C(=O)NC)OCCOCCOC1C(=O)NC (stereo not given)
inactive: dose: 50.0 mg/kg/injection, schedule: Q01DX005 (ip), vehicle: Klucel (hydroxypropylcellulose) (HPC) 96 % of control | dose: 100.0 mg/kg/injection, schedule: Q01DX005 (ip), vehicle: Klucel (hydroxypropylcellulose) (HPC) 98 % of control | dose: 200.0 mg/kg/injection, schedule: Q01DX005 (ip), vehicle: Klucel (hydroxypropylcellulose) (HPC) 97 % of control

CCOC(=O)c1ccc(NC(=O)OC2CCCC2)cc1
inactive: dose: 60.0 mg/kg/injection, schedule: Q01DX005 (ip), vehicle: saline with Tween-80 92 % of control | dose: 120.0 mg/kg/injection, schedule: Q01DX005 (ip), vehicle: saline with Tween-80 90 % of control | dose: 240.0 mg/kg/injection, schedule: Q01DX005 (ip), vehicle: saline with Tween-80 89 % of control

COc1cccc2c1cc([N+](=O)[O-])c1c(C(=O)O)cc3c(c12)OCO3
inactive: dose: 2.5 mg/kg/injection, schedule: Q01DX009 (ip), vehicle: Klucel (hydroxypropylcellulose) (HPC) 118 % of control | dose: 2.5 mg/kg/injection, schedule: Q01DX009 (ip), vehicle: saline 108 % of control | dose: 5.0 mg/kg/injection, schedule: Q01DX009 (ip), vehicle: Klucel (hydroxypropylcellulose) (HPC) 118 % of control | dose: 5.0 mg/kg/injection, schedule: Q01DX009 (ip), vehicle: saline 117 % of control | dose: 10.0 mg/kg/injection, schedule: Q01DX009 (ip), vehicle: saline 117 % of control

O=C1C(Br)CCC1(c1ccccc1)c1ccccc1 (stereo not given)
inactive: dose: 100.0 mg/kg/injection, schedule: Q01DX001 (ip), vehicle: Klucel (hydroxypropylcellulose) (HPC) 102 % of control | dose: 200.0 mg/kg/injection, schedule: Q01DX001 (ip), vehicle: Klucel (hydroxypropylcellulose) (HPC) 106 % of control | dose: 400.0 mg/kg/injection, schedule: Q01DX001 (ip), vehicle: Klucel (hydroxypropylcellulose) (HPC) 102 % of control

Ic1ccc(Nc2ncnc3sc4c(c23)CCCC4)cc1
inactive: dose: 50.0 mg/kg/injection, schedule: Q01DX005 (ip), vehicle: saline with Tween-80 111 % of control | dose: 100.0 mg/kg/injection, schedule: Q01DX005 (ip), vehicle: saline with Tween-80 94 % of control | dose: 200.0 mg/kg/injection, schedule: Q01DX005 (ip), vehicle: saline with Tween-80 92 % of control

C=CCCCC(C#N)c1ccc2c(c1)OCO2 (stereo not given)
inactive: dose: 50.0 mg/kg/injection, schedule: Q01DX005 (ip), vehicle: saline 105 % of control | dose: 100.0 mg/kg/injection, schedule: Q01DX005 (ip), vehicle: saline 105 % of control | dose: 200.0 mg/kg/injection, schedule: Q01DX005 (ip), vehicle: saline 101 % of control
